Measurements: patent publication US6610714B2, “Non-nucleoside reverse transcriptase inhibitors” (Medivir AB, priority 2001, dated 2003)

Tested on: HIV-1IIIB (wild type)
Test: XTT assay in MT-4 cells infected with wild type HIV-1IIIB
Format: cell-based
Settings: Human immunodeficiency virus 1, MT4, read-out: ED50
Protocol: Compounds of the invention are assayed for HIV activity, for example using multiple determinations with XTT in MT-4 cells (Weislow et al, J Nat Cancer Inst 1989, vol 81 no 8, 577 et seq), preferably including determinations in the presence of 40-50% human serum to indicate the contribution of protein binding. In short the XTT assay uses human T cell line MT4 cells grown in RPMI 1640 medium supplemented with 10% fetal calf serum (or 40-50% human serum as appropriate), penicillin and streptomycin seeded into 96 well microplates (2·10^4 cells/well) infected with 10-20 TCID50 per well of HIV-1IIIB (wild type) or mutant virus, such as those bearing RT IIe 100, Cys 181 or Asn 103 mutations. Serially diluted test compounds are added to respective wells and the culture incubated at 37° C. in a CO2 enriched atmosphere and the viability of cells is determined at day five or six with XTT vital dye. Results are typically presented as ED50 μM.

Row | Compound | EC50 [nM]
1 | N#Cc1ccc(NC(=O)N[C@@H]2[C@@H]3Cc4cc(Br)ccc4[C@@H]32)nc1 (racemic) [Example 17, (±)-cis-1-(5-cyano-2-pyridinyl)-3-(4-bromo-1,1a,6,6a-tetrahydro-cyclopropa[a]inden-1-yl)-urea] | 42
2 | O=C(Nc1ccc(Cl)cn1)N[C@@H]1[C@@H]2Cc3c(F)ccc(F)c3[C@@H]21 (racemic) [Example 19, (±)-cis-1-(5-chloro-2-pyridinyl)-3-(2,5-difluoro-1,1a,6,6a-tetrahydro-cyclopropa[a]inden-1-yl)-urea] | 10
3 | N#Cc1ccc(NC(=O)N[C@@H]2[C@@H]3Cc4c(F)ccc(F)c4[C@@H]32)nc1 (racemic) [Example 20, (±)-cis-1-(5-cyano-2-pyridinyl)-3-(2,5-difluoro-1,1a,6,6a-tetrahydro-cyclopropa[a]inden-1-yl)-urea] | 14
4 | COc1ccc2c(c1)CC[C@H]1[C@@H](NC(=O)Nc3ccc(C#N)cn3)[C@@H]21 [Example 5, +/−cis-N-(5-cyano-2-pyridinyl)-N-(5-methoxy-1a,2,3,7b-tetrahydro-1H-cyclopropa[a]naphthalen-1-yl)urea] | 9
5 | COc1ccc2c(c1)[C@H]1[C@@H](CC2)[C@H]1NC(=O)Nc1ccc(C#N)cn1 [Example 6, +/−cis-N-(5-cyano-2-pyridinyl)-N-(6-methoxy-1a,2,3,7b-tetrahydro-1H cyclopropa[a]naphthalen-1-yl)urea] | 36
6 | C#Cc1ccc2c(c1)CC[C@H]1[C@@H](NC(=O)Nc3ccc(C#N)cn3)[C@@H]21 [Example 8, +/−cis-N-(5-cyano-2-pyridinyl)-N-(5-ethynyl-1a,2,3,7b-tetrahydro-1H-cyclopropa[a]naphthalen-1-yl)urea] | 32
7 | C#Cc1ccc2c(c1)CC[C@H]1[C@@H](NC(=O)Nc3ccc(Br)cn3)[C@@H]21 [Example 9, +/−cis-N-(5-bromo-2-pyridinyl)-N-(5-ethynyl-1a,2,3,7b-tetrahydro-1H-cyclopropa[a]naphthalen-1-yl)urea] | 44
